# Assay results reported in US20220151236A1, “NOVEL OXADIAZOLE COMPOUNDS FOR CONTROLLING OR PREVENTING PHYTOPATHOGENIC FUNGI” (PI INDUSTRIES LTD., priority 2019, published 2022).
# Test system: Phakopsora pachyrhizi
# Assay: Phakopsora pachyrhizi Test on Soybean (preventive activity, greenhouse)
# Format: in vivo
# Conditions: preventive spray on young Soybean plants, inoculated one day after treatment, rated 3, 7, 10 and 15 days after application, read-out: Efficacy (% control), disease severity compared to the untreated check
# Experimental: Compounds were dissolved in 2% dimethyl sulfoxide/acetone and then mixed with water containing an emulsifier to a calibrated spray volume of 50 mL. This 50 mL spray solution was poured into spray bottles for further applications. To test the preventive activity of compounds, healthy young Soybean plants raised in the greenhouse were sprayed with the active compound preparation at the stated application rates inside the spray cabinets using hollow cone nozzles. One day after treatment, the plants were inoculated with a spore suspension containing 2×10^5 Phakopsora pachyrhizi conidia. The inoculated plants were then kept in a greenhouse chamber at 22-24° C. temperature and 80-90% relative humidity for disease expression. A visual assessment of the compound's performance was carried out by rating the disease severity (0-100% scale) on treated plants 3, 7, 10 and 15 days after application. Efficacy (% control) of the compounds was calculated by comparing the disease rating in the treatment with the one of the untreated control. The sprayed plants were also assessed for plant compatibility by recording symptoms like necrosis, chlorosis and stunting.
row,SMILES,pest or weed control at 500 ppm [%]
1,"O=C(NC1CCCC1)c1cn2cc(-c3noc(C(F)(F)F)n3)ccc2n1 [Compound 67, N-cyclopentyl-6-(5-(trifluoromethyl)-1,2,4-oxadiazol-3-yl)imidazo[1,2-a]pyridine-2-carboxamide]",≥ 70
2,"COC1CCN(C(=O)c2cn3cc(-c4noc(C(F)(F)F)n4)ccc3n2)C1 (stereo not drawn) [Compound 68, (3-methoxypyrrolidin-1-yl)(6-(5-(trifluoromethyl)-1,2,4-oxadiazol-3-yl)imidazo[1,2-a]pyridin-2-yl)methanone]",≥ 70
3,"O=C(NCC1CC1)c1cn2cc(-c3noc(C(F)(F)F)n3)ccc2n1 [Compound 70, N-(cyclopropylmethyl)-6-(5-(trifluoromethyl)-1,2,4-oxadiazol-3-yl)imidazo[1,2-a]pyridine-2-carboxamide]",≥ 70
4,"CN(Cc1ccccc1)C(=O)c1cn2cc(-c3noc(C(F)(F)F)n3)ccc2n1 [Compound 71, N-benzyl-N-methyl-6-(5-(trifluoromethyl)-1,2,4-oxadiazol-3-yl)imidazo[1,2-a]pyridine-2-carboxamide]",≥ 70
5,"CC(NC(=O)c1cn2cc(-c3noc(C(F)(F)F)n3)ccc2n1)c1ccccc1 (stereo not drawn) [Compound 72, N-(1-phenylethyl)-6-(5-(trifluoromethyl)-1,2,4-oxadiazol-3-yl)imidazo[1,2-a]pyridine-2-carboxamide]",≥ 70
6,"N#CC1(NC(=O)c2cn3cc(-c4noc(C(F)(F)F)n4)ccc3n2)CC1 [Compound 73, N-(1-cyanocyclopropyl)-6-(5-(trifluoromethyl)-1,2,4-oxadiazol-3-yl)imidazo[1,2-a]pyridine-2-carboxamide]",≥ 70
7,"O=C(NCc1cccc(Cl)c1)c1cn2cc(-c3noc(C(F)(F)F)n3)ccc2n1 [Compound 75, N-(3-chlorobenzyl)-6-(5-(trifluoromethyl)-1,2,4-oxadiazol-3-yl)imidazo[1,2-a]pyridine-2-carboxamide]",≥ 70
8,"COc1cccc(CNC(=O)c2cn3cc(-c4noc(C(F)(F)F)n4)ccc3n2)c1 [Compound 76, N-(3-methoxybenzyl)-6-(5-(trifluoromethyl)-1,2,4-oxadiazol-3-yl)imidazo[1,2-a]pyridine-2-carboxamide]",≥ 70
9,"O=C(NCc1ccc(Cl)cc1)c1cn2cc(-c3noc(C(F)(F)F)n3)ccc2n1 [Compound 77, N-(4-chlorobenzyl)-6-(5-(trifluoromethyl)-1,2,4-oxadiazol-3-yl)imidazo[1,2-a]pyridine-2-carboxamide]",≥ 70
10,"CC(C)CN(C)C(=O)c1cn2cc(-c3noc(C(F)(F)F)n3)ccc2n1 [Compound 78, N-isobutyl-N-methyl-6-(5-(trifluoromethyl)-1,2,4-oxadiazol-3-yl)imidazo[1,2-a]pyridine-2-carboxamide]",≥ 70
11,"CCOC(=O)c1cn2cc(-c3noc(C(F)(F)F)n3)ccc2n1 [Compound 79, ethyl 6-(5-(trifluoromethyl)-1,2,4-oxadiazol-3-yl)imidazo[1,2-a]pyridine-2-carboxylate]",≥ 70
12,"COc1ccc(C(=O)NCc2cn3cc(-c4noc(C(F)(F)F)n4)ccc3n2)cc1 [Compound 82, 4-methoxy-N-((6-(5-(trifluoromethyl)-1,2,4-oxadiazol-3-yl)imidazo[1,2-a]pyridin-2-yl)methyl)benzamide]",≥ 70
13,"O=C(NCc1cn2cc(-c3noc(C(F)(F)F)n3)ccc2n1)c1ccc(Cl)cc1 [Compound 83, 4-chloro-N-((6-(5-(trifluoromethyl)-1,2,4-oxadiazol-3-yl)imidazo[1,2-a]pyridin-2-yl)methyl)benzamide]",≥ 70
14,"CCC(=O)NCc1cn2cc(-c3noc(C(F)(F)F)n3)ccc2n1 [Compound 88, N-((6-(5-(trifluoromethyl)-1,2,4-oxadiazol-3-yl)imidazo[1,2-a]pyridin-2-yl)methyl)propionamide]",≥ 70
15,"O=C(NCc1cn2cc(-c3noc(C(F)(F)F)n3)ccc2n1)c1ccc(F)cc1 [Compound 90, 4-fluoro-N-((6-(5-(trifluoromethyl)-1,2,4-oxadiazol-3-yl)imidazo[1,2-a]pyridin-2-yl)methyl)benzamide]",≥ 70
16,"O=C(NCc1cn2cc(-c3noc(C(F)(F)F)n3)ccc2n1)c1cccc(F)c1 [Compound 93, 3-fluoro-N-((6-(5-(trifluoromethyl)-1,2,4-oxadiazol-3-yl)imidazo[1,2-a]pyridin-2-yl)methyl)benzamide]",≥ 70
17,"O=C(NCc1cn2cc(-c3noc(C(F)(F)F)n3)ccc2n1)c1ccncc1 [Compound 99, N-((6-(5-(trifluoromethyl)-1,2,4-oxadiazol-3-yl)imidazo[1,2-a]pyridin-2-yl)methyl)isonicotinamide]",≥ 70

row,SMILES,pest or weed control at 500 ppm [%]
1,"COc1ccc(SCc2cn3cc(-c4noc(C(F)(F)F)n4)ccc3n2)cc1 [Compound 100, 3-(2-(((4-methoxyphenyl)thio)methyl)imidazo[1,2-a]pyridin-6-yl)-5-(trifluoromethyl)-1,2,4-oxadiazole]",≥ 70
2,"FC(F)(F)c1nc(-c2ccc3nc(CSc4ccccc4)cn3c2)no1 [Compound 101, 3-(2-((phenylthio)methyl)imidazo[1,2-a]pyridin-6-yl)-5-(trifluoromethyl)-1,2,4-oxadiazole]",≥ 70
3,"Fc1cccc(SCc2cn3cc(-c4noc(C(F)(F)F)n4)ccc3n2)c1 [Compound 104, 3-(2-(((3-fluorophenyl)thio)methyl)imidazo[1,2-a]pyridin-6-yl)-5-(trifluoromethyl)-1,2,4-oxadiazole]",≥ 70
4,"Fc1ccc(SCc2cn3cc(-c4noc(C(F)(F)F)n4)ccc3n2)cc1 [Compound 105, 3-(2-(((4-fluorophenyl)thio)methyl)imidazo[1,2-a]pyridin-6-yl)-5-(trifluoromethyl)-1,2,4-oxadiazole]",≥ 70
5,"Fc1ccccc1SCc1cn2cc(-c3noc(C(F)(F)F)n3)ccc2n1 [Compound 106, 3-(2-(((2-fluorophenyl)thio)methyl)imidazo[1,2-a]pyridin-6-yl)-5-(trifluoromethyl)-1,2,4-oxadiazole]",≥ 70
6,"CCCSCc1cn2cc(-c3noc(C(F)(F)F)n3)ccc2n1 [Compound 107, 3-(2-((propylthio)methyl)imidazo[1,2-a]pyridin-6-yl)-5-(trifluoromethyl)-1,2,4-oxadiazole]",≥ 70
7,"COc1ccc(CSCc2cn3cc(-c4noc(C(F)(F)F)n4)ccc3n2)cc1 [Compound 109, 3-(2-(((4-methoxybenzyl)thio)methyl)imidazo[1,2-a]pyridin-6-yl)-5-(trifluoromethyl)-1,2,4-oxadiazole]",≥ 70
8,"FC(F)(F)c1nc(-c2ccc3nc(CSc4ccc(Cl)c(Cl)c4)cn3c2)no1 [Compound 110, 3-(2-(((3,4-dichlorophenyl)thio)methyl)imidazo[1,2-a]pyridin-6-yl)-5-(trifluoromethyl)-1,2,4-oxadiazole]",≥ 70
9,"O=S(=O)(Cc1cn2cc(-c3noc(C(F)(F)F)n3)ccc2n1)c1cccc(F)c1 [Compound 120, 3-(2-(((3-fluorophenyl)sulfonyl)methyl)imidazo[1,2-a]pyridin-6-yl)-5-(trifluoromethyl)-1,2,4-oxadiazole]",≥ 70
10,"O=S(=O)(Cc1cn2cc(-c3noc(C(F)(F)F)n3)ccc2n1)c1ccc(F)cc1 [Compound 121, 3-(2-(((4-fluorophenyl)sulfonyl)methyl)imidazo[1,2-a]pyridin-6-yl)-5-(trifluoromethyl)-1,2,4-oxadiazole]",≥ 70
11,"COc1ccc(CS(=O)(=O)Cc2cn3cc(-c4noc(C(F)(F)F)n4)ccc3n2)cc1 [Compound 122, 3-(2-(((4-methoxybenzyl)sulfonyl)methyl)imidazo[1,2-a]pyridin-6-yl)-5-(trifluoromethyl)-1,2,4-oxadiazole]",≥ 70
12,"[O-][S+](Cc1cn2cc(-c3noc(C(F)(F)F)n3)ccc2n1)c1ccc(Cl)c(Cl)c1 (stereo not drawn) [Compound 126, 3-(2-(((3,4-dichlorophenyl)sulfinyl)methyl)imidazo[1,2-a]pyridin-6-yl)-5-(trifluoromethyl)-1,2,4-oxadiazole]",≥ 70
13,"[O-][S+](Cc1cn2cc(-c3noc(C(F)(F)F)n3)ccc2n1)c1cccc(Cl)c1 (stereo not drawn) [Compound 127, 3-(2-(((3-chlorophenyl)sulfinyl)methyl)imidazo[1,2-a]pyridin-6-yl)-5-(trifluoromethyl)-1,2,4-oxadiazole]",≥ 70
14,"CS(=O)(=NC(=O)Cc1cn2cc(-c3noc(C(F)(F)F)n3)ccc2n1)c1ccccc1 (stereo not drawn) [Compound 129, N-(methyl(oxo)(phenyl)-λ^6-sulfanylidene)-2-(6-(5-(trifluoromethyl)-1,2,4-oxadiazol-3-yl)imidazo[1,2-a]pyridin-2-yl)acetamide]",≥ 70
15,"CS(=O)(=NC(=O)Cc1cn2cc(-c3noc(C(F)(F)F)n3)ccc2n1)c1ccccc1F (stereo not drawn) [Compound 130, N-((2-fluorophenyl)(methyl)(oxo)-λ^6-sulfaneylidene)-2-(6-(5-(trifluoromethyl)-1,2,4-oxadiazol-3-yl)imidazo[1,2-a]pyridin-2-yl)acetamide]",≥ 70
16,"N=S(=O)(Cc1cn2ccc(-c3noc(C(F)(F)F)n3)cc2n1)c1ccccc1 (stereo not drawn) [Compound 164, imino(phenyl)((7-(5-(trifluoromethyl)-1,2,4-oxadiazol-3-yl)imidazo[1,2-a]pyridin-2-yl)methyl)-λ^6-sulfanone]",≥ 70
